Results published in the supplement of paper PMC10307832.

Legend:
Test in all cases: relative viability (nuclei count vs DMSO), 5 days (fraction); higher = more cells survive
AZD1208 + Tozasertib = compound: N[C@@H]1CCCN(c2c(/C=C3\SC(=O)NC3=O)cccc2-c2ccccc2)C1 [AZD1208] + Cc1cc(Nc2cc(N3CCN(C)CC3)nc(Sc3ccc(NC(=O)C4CC4)cc3)n2)n[nH]1 [Tozasertib] (partner 0.1 µM)
Summary of the method: (§1)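 Relative viability is defined as nuclei in treated wells over nuclei in vehicle wells. Duplicate plates were run and medians reported. Lung cancer cell lines in 1536-well plates were dosed by pin tool one day after seeding, with one drug or with a fixed anchor-drug dose plus five library-drug doses (not always all listed) in √10 steps, and nuclei were counted after 5 days.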

AZD1208 + Phenformin = compound: N[C@@H]1CCCN(c2c(/C=C3\SC(=O)NC3=O)cccc2-c2ccccc2)C1 [AZD1208] + N=C(N)NC(=N)NCCc1ccccc1 [Phenformin] (partner 250 µM)
Summary of the method: as §1

AZD1208 + Palbociclib = compound: N[C@@H]1CCCN(c2c(/C=C3\SC(=O)NC3=O)cccc2-c2ccccc2)C1 [AZD1208] + CC(=O)c1c(C)c2cnc(Nc3ccc(N4CCNCC4)cn3)nc2n(C2CCCC2)c1=O [Palbociclib] (partner 0.5 µM)
Summary of the method: as §1

AZD1208 + Alpelisib = compound: N[C@@H]1CCCN(c2c(/C=C3\SC(=O)NC3=O)cccc2-c2ccccc2)C1 [AZD1208] + Cc1nc(NC(=O)N2CCC[C@H]2C(N)=O)sc1-c1ccnc(C(C)(C)C(F)(F)F)c1 [Alpelisib] (partner 2 µM)
Summary of the method: as §1

Row | Cell Line | relative viability (AZD1208 + Tozasertib; first compound 0.08 µM) | relative viability (AZD1208 + Tozasertib; first compound 0.253 µM) | relative viability (AZD1208 + Tozasertib; first compound 0.8 µM) | relative viability (AZD1208 + Tozasertib; first compound 2.53 µM) | relative viability (AZD1208 + Tozasertib; first compound 8 µM) | relative viability (AZD1208 + Phenformin; first compound 0.08 µM) | relative viability (AZD1208 + Phenformin; first compound 0.253 µM) | relative viability (AZD1208 + Phenformin; first compound 0.8 µM) | relative viability (AZD1208 + Phenformin; first compound 2.53 µM) | relative viability (AZD1208 + Phenformin; first compound 8 µM) | relative viability (AZD1208 + Palbociclib; first compound 0.08 µM) | relative viability (AZD1208 + Palbociclib; first compound 0.253 µM) | relative viability (AZD1208 + Palbociclib; first compound 0.8 µM) | relative viability (AZD1208 + Palbociclib; first compound 2.53 µM) | relative viability (AZD1208 + Palbociclib; first compound 8 µM) | relative viability (AZD1208 + Alpelisib; first compound 0.08 µM) | relative viability (AZD1208 + Alpelisib; first compound 0.253 µM) | relative viability (AZD1208 + Alpelisib; first compound 0.8 µM) | relative viability (AZD1208 + Alpelisib; first compound 2.53 µM) | relative viability (AZD1208 + Alpelisib; first compound 8 µM)
1 | ChaGo-K-1 | 0.216 | 0.202 | 0.193 | 0.218 | 0.183 | 0.54 | 0.569 | 0.524 | 0.475 | 0.373 | 0.905 | 0.969 | 0.874 | 0.906 | 0.884 |  |  |  |  | 
2 | EBC-1 |  |  |  |  |  |  |  |  |  |  |  |  |  |  |  | 0.783 | 0.806 | 0.885 | 0.75 | 0.817
3 | EKVX | 0.444 | 0.462 | 0.376 | 0.388 | 0.262 | 0.23 | 0.247 | 0.258 | 0.256 | 0.228 | 0.383 | 0.41 | 0.336 | 0.332 | 0.419 | 0.866 | 0.936 | 0.775 | 0.802 | 0.71
4 | EMC-BAC-2 | 0.28 | 0.298 | 0.28 | 0.25 | 0.222 | 0.535 | 0.63 | 0.497 | 0.509 | 0.428 | 0.518 | 0.51 | 0.504 | 0.494 | 0.432 | 0.752 | 0.74 | 0.636 | 0.701 | 0.62
5 | EPLC-272H | 0.231 | 0.351 | 0.263 | 0.149 | 0.197 | 0.313 | 0.329 | 0.305 | 0.272 | 0.244 | 0.363 | 0.34 | 0.326 | 0.308 | 0.373 | 0.938 | 0.949 | 0.807 | 0.807 | 0.894
6 | H3255 | 0.664 | 0.675 | 0.534 | 0.58 | 0.689 | 0.37 | 0.353 | 0.372 | 0.401 | 0.405 | 0.299 | 0.307 | 0.333 | 0.314 | 0.326 | 0.662 | 0.702 | 0.639 | 0.567 | 0.615
7 | HARA | 0.11 | 0.0998 | 0.111 | 0.0918 | 0.0796 | 0.454 | 0.498 | 0.377 | 0.474 | 0.468 | 0.268 | 0.258 | 0.246 | 0.291 | 0.261 | 0.747 | 0.794 | 0.671 | 0.754 | 0.747
8 | HCC-15 | 0.362 | 0.306 | 0.241 | 0.186 | 0.184 | 0.431 | 0.491 | 0.459 | 0.428 | 0.316 | 0.748 | 0.872 | 0.68 | 0.711 | 0.657 | 0.742 | 0.823 | 0.557 | 0.664 | 0.584
9 | HCC-44 | 0.876 | 1.04 | 0.877 | 0.896 | 0.866 | 0.219 | 0.202 | 0.172 | 0.147 | 0.176 | 1.01 | 0.941 | 0.976 | 0.968 | 1.02 | 0.722 | 0.854 | 0.744 | 0.695 | 0.626
